# Experimental data from ChEMBL document CHEMBL1134047, “Binding of a cyclic BIV beta-Tat peptide with its TAR RNA construct” (Bioorg Med Chem Lett, 2001).
# System: Nucleic Acid
# Experiment: Binding affinity to the ([…]) BIV TAR RNA target was determined by fluorescence binding study
# Type: nucleic-acid assay, Bos taurus
structure (smiles),measurement,value
CC[C@H](C)[C@H](NC(=O)[C@H](CCCN=C(N)N)NC(=O)[C@H](CCCN=C(N)N)NC(=O)CNC(=O)[C@H](CCCCN)NC(=O)CNC(=O)[C@H](CCCN=C(N)N)NC(=O)[C@@H](NC(=O)CNC(=O)[C@H](CCCN=C(N)N)NC(=O)[C@H]1CCCN1C(=O)[C@H](CCCN=C(N)N)NC(=O)[C@H]1CCCN1C(=O)CNC(=O)[C@H](CO)NC(=O)[C@@H](N)CS)[C@@H](C)O)C(=O)N[C@@H](CCCN=C(N)N)C(N)=O,Kd,1.28 nM
CC[C@H](C)[C@@H]1NC(=O)[C@@H](CCCNC(=N)N)NC(=O)[C@H](CCCNC(=N)N)NC(=O)CNC(=O)[C@H](CCCCN)NC(=O)CNC(=O)[C@H](CCCNC(=N)N)NC(=O)[C@@H]([C@@H](C)O)NC(=O)CNC(=O)[C@@H](CCCNC(=N)N)NC(=O)[C@@H]2CCCN2C(=O)[C@@H](CCCNC(=N)N)NC(=O)[C@H]2CCCN2C(=O)CNC(=O)[C@@H](CO)NC(=O)[C@@H](N)CSSC[C@@H](C(=O)O)NC(=O)[C@H](CCCNC(=N)N)NC(=O)[C@@H](CCCNC(=N)N)NC1=O,Kd,0.273 nM
CC[C@H](C)[C@H](NC(=O)[C@H](CCCNC(=N)N)NC(=O)[C@H](CCCNC(=N)N)NC(=O)CNC(=O)[C@H](CCCCN)NC(=O)CNC(=O)[C@H](CCCNC(=N)N)NC(=O)[C@@H](NC(=O)CNC(=O)[C@H](CCCNC(=N)N)NC(=O)[C@H]1CCCN1C(=O)[C@H](CCCNC(=N)N)NC(=O)[C@H]1CCCN1C(=O)CNC(=O)[C@@H](N)CO)[C@@H](C)O)C(=O)N[C@@H](CCCNC(=N)N)C(=O)N[C@@H](CCCNC(=N)N)C(=O)O,Kd,1.32 nM
